According to the METLIN SMRT retention time set (Domingo-Almenara et al. 2019):

Experiment: gradient 5% acetonitrile 3 min, to 50% in 2 min, to 85% in 15 min, held 3 min, 100 µL/min
Conditions: column: Zorbax Extend-C18 2.1 x 50 mm; eluents: water / acetonitrile, 0.1% formic acid
How it was run: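 Data were gathered over 3 months by HPLC coupled to a quadrupole time-of-flight mass spectrometer, operated in positive and negative ionization mode. Mixtures of ~100 pure standards ran on a Zorbax Extend-C18 column (2.1 × 50 mm, 1.8 μm) at 100 μL/min, with water and acetonitrile each containing 0.1% formic acid and dead and dwell volumes of 40 μL and 900 μL. Retention time was read from adduct peaks picked by computer and checked manually.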

RP-LC retention time [s] | SMILES
670 | Cc1cc(N2CCCC2)nc(N2CCN(C(=O)C3CCCC3)CC2)n1
624 | O=C(Nc1ccc(OCC(=O)N2CCN(c3ncccn3)CC2)nc1)C1CC1
861 | Cc1ccccc1CSc1nnc2c(S(=O)(=O)N3CCCC3)cccn12
784 | Cc1ccc(CNC(=O)c2nc(Nc3ccc(F)cc3)c3ccccc3n2)o1
868 | CC1=C(c2cccc(Cl)c2)S(=O)(=O)N=C1N1CCCN(C(=O)CC(C)C)CC1
1000 | O=C(CSc1ccccc1)N1CCc2nc(-c3ccc(F)cc3)ncc2C1
606 | Cc1cc(C)cc(C(=O)N2CCCC(C(=O)NCCN3CCCC3)C2)c1 (stereo not given)
1010 | Cc1cc(C)cc(S(=O)(=O)N2CCC(n3cnc4ccc(C)cc4c3=O)CC2)c1
936 | CN1C(=O)c2cccnc2Sc2cc(NC(=O)c3ccc(OC(F)(F)F)cc3)ccc21
1070 | Cc1ccc(Cn2cc(-c3noc(C4CCCC4)n3)nn2)cc1
935 | CCOC(=O)c1nc(N2CCc3ccccc32)c2ccccc2n1
787 | O=C(Nc1ccc(Cl)cc1)C1CC(=O)N(c2n[nH]c3cccc(F)c23)C1 (stereo not given)
593 | O=C(NCc1ccccn1)C1CCN(c2ncnc3c2oc2ccccc23)CC1
611 | CCn1c(CN(C)C(=O)Nc2ccc3c(c2)OCCO3)nc2cc(C(=O)N(C)C)ccc21
614 | CN1CCN(CCCNC(=O)CCc2cn(-c3ccccc3)nc2-c2ccc3c(c2)OCO3)CC1
723 | O=C(CSc1ccncc1)N1CCc2cc(-c3csc(C4CC4)n3)ccc21
777 | Cc1ccc(Cn2cc(CCC(=O)N3CCN(c4ccccn4)CC3)c3ccccc32)cc1

RP-LC retention time [s] | SMILES
800 | COc1ccc(NC(=O)Cn2nc(C(=O)N3CCCC3)c3ccccc32)cc1
1060 | COC(=O)c1c(-c2cccc(Cl)c2)noc1NCc1ccco1
655 | COc1ccc(-c2cc(N3CCC(NC(=O)c4ccc(OC)c(OC)c4)C3)n[nH]2)cc1 (stereo not given)
796 | Cc1cc(N2CCN(S(=O)(=O)c3ccccc3F)CC2)nc(NC2CCCCC2)n1
652 | CN1C(=O)Cc2cc(C(=O)N3CCCCC3)ccc21
644 | O=C(NCc1cccs1)c1ccc2ncnc(N3CCCCC3)c2c1
952 | COc1ccc(OC)c(S(=O)(=O)N2CCCC(C(=O)Nc3cccc(C)c3)C2)c1 (stereo not given)
1200 | CSc1ccc(C2c3[nH]c4ccccc4c3CCN2C(=O)Cc2cccs2)cc1 (stereo not given)
586 | CCn1c(CCNC(=O)c2cccc(N(C)C)c2)nc2cccnc21
803 | Cc1cccc(N2CCN(C(=O)C3CC(=O)N(c4cccc(NC(=O)C(C)C)c4)C3)CC2)c1 (stereo not given)
773 | CC(=O)Nc1ccc(C2(C(=O)NCc3cccc(C)c3)CCC2)cc1
851 | CN(C(=O)C1CCCN(c2ncnc3c2nc2n3CCCCC2)C1)c1cccc(Cl)c1 (stereo not given)
998 | O=C(NCc1ccc2c(c1)OCO2)C1CCCN(c2ncc(-c3cccc(F)c3)cn2)C1 (stereo not given)
904 | Cc1ccsc1C(=O)NCC12CCCC=C1N(CC1CC1)C(=O)CC2 (stereo not given)
676 | CN(Cc1ccco1)C(=O)c1ccc(-n2cc(CNC(=O)C3CC3)cn2)cc1
837 | Cc1ncc(Cl)cc1NCc1ccc(C(=O)N[C@@H](CC2CCCC2)C(=O)NC2CC2)s1
730 | Cc1ccc(NC(=O)Cn2cnc3nc(N4CCCC(C(=O)NC(C)C)C4)sc3c2=O)cc1C (stereo not given)

Second part, the compound before the results:

SMILES | RP-LC retention time [s]
CCN(CC)c1ncc2c(n1)CCC(C(=O)Nc1ccc(OC)cc1OC)C2 (stereo not given) | 726
Cc1cccc(-c2nc3ccccn3c2NC(=O)Nc2ccccc2)c1 | 665
COC(=O)COC(=O)c1cn(-c2ccc(OC)cc2)c(=O)c2ccccc12 | 924
Cc1ccccc1CNC(=O)CN1C(=O)CSc2cccn2-c2ccccc21 | 916
CCN1c2ccccc2C(=O)NC12CCN(C(=O)c1ccccc1OC)CC2 | 732
N#CC1=CN(c2ccc(F)c(F)c2)c2ccc(F)cc2S1(=O)=O | 934
CC1CCc2nn(CC(=O)Nc3ccc(F)cc3F)cc2C1 (stereo not given) | 875
Cc1ccc(Cn2c(=O)c3sccc3n(Cc3nc(-c4ccc(C)cc4)no3)c2=O)cc1 | 1140
COc1ccc(C(=O)CC2(O)C(=O)Nc3ccc(C)cc32)cc1OC (stereo not given) | 670
CCn1cc(C(=O)N2C[C@@H](COCC3CC3)[C@H](c3nc(C)no3)C2)cn1 | 714
COc1ccc(Cn2c(=O)c3sccc3n(Cc3nc(-c4ccccc4OC)no3)c2=O)cc1 | 970
CC1CCCN(CCCNC(=O)CN2C(=O)CCc3cc(S(=O)(=O)N4CCCCC4)ccc32)C1 (stereo not given) | 638
COc1ccc(NC(=O)Nc2c(-c3ccccc3)nc3ccccn23)cc1OC | 612
O=C(c1ccc2c(c1)OCO2)N1[C@H]2CC[C@@H]1c1cnc(-c3ccccc3)nc1C2 | 914
O=C([C@@H]1COCC(=O)N1Cc1ccccc1)N1CCN(Cc2ccc3c(c2)OCO3)CC1 | 606
COC(=O)c1cc(OCC(=O)Nc2ccccc2)c2cc(OC)c(OC)cc2n1 | 711

SMILES | RP-LC retention time [s]
O=C(Nc1ccc(F)c(Cl)c1)Nc1nccn(-c2ccc3c(c2)CCC3)c1=O | 1180
COc1ccc(C2C(=O)N(CCc3ccccc3)CC(=O)N2Cc2ccc3c(c2)OCO3)cc1 (stereo not given) | 933
Cc1nn(C)cc1S(=O)(=O)N(Cc1ccccc1)c1ccccc1 | 861
COc1ccc(N2CC(c3nc(-c4ccc(C(F)(F)F)cc4)no3)CC2=O)c(OC)c1 (stereo not given) | 1030
Cc1cc(-c2nnc(-c3ccco3)o2)c(C)n1CC(=O)Nc1ccc(F)c(F)c1 | 909
CCc1ccccc1Nc1nc(-c2ccc(Cl)cc2)cs1 | 1310
COc1ccc(Cl)cc1NS(=O)(=O)c1cc(-c2cc(C(F)(F)F)on2)sc1C | 1220
Cn1nccc1C(=O)N1CCc2c([nH]c3ccccc23)C1c1ccc(F)cc1 (stereo not given) | 995
O=c1ccn(-c2cccc(F)c2)nc1-c1nc(-c2cccc(Cl)c2)no1 | 992
C=CCN(CC=C)c1nc(-c2ccc([N+](=O)[O-])cc2)nc2ccccc12 | 1060
CC(C)N1CCN(Cc2ccc(C(=O)N3CCN(C4CCCCC4)CC3)cc2)C(=O)C1=O | 839
Cc1ccc(-n2ccnc2SCc2nc(-c3ccc(Br)cc3)no2)cc1 | 1090
N#Cc1nnn(-c2ccc(Cl)cc2)c1N | 816
COc1cc(Br)cc2c1OC1(C)CC2NC(=O)N1c1cccc(C(=O)O)c1 (stereo not given) | 672
COc1ccc(NS(=O)(=O)c2cn(C(C)C)c3ncccc23)cc1Cl | 908
